Measured values from patent publication US7220580B2, “Sphingosine 1-phosphate receptor gene, sppr” (University of South Florida, priority 2000, dated 2007).

Columns and labels:
EDG-8 [1] = target: T1, EDG-8 (Rattus norvegicus, UniProt Q9JKM5); settings: CHO cells expressing EDG-8; cited from earlier work
T1 construct: host or cells: CHO cells

S1P5 = target: T2, S1P5 (Homo sapiens, UniProt Q9H228); test: Erk2 kinase assay in HEK293 cells transiently transfected with S1P5; assay type: cell-based; settings: HEK293 cells transiently transfected with S1P5 and HA-Erk2, 1 μM ligand for 5 min, MBP as substrate
T2 construct: The largest PCR product contains a complete open reading frame; expressed in transfected cells; host or cells: HEK293
Description: Vector plasmid is added to each transfection reaction to equalize the amount of total DNA (2.1 μg). […] HA-ERK2 is immunoprecipitated from one half of each whole cell lysate and used for measuring the kinase activity utilizing MBP as substrate, while HA-ERK2 immunoprecipitated from the other half is used for determining the amount of ERK2 protein in the immune complex. FIG. 10 illustrates a representative autoradiogram of ^32P incorporation into MBP catalyzed by HA-ERK 2 immunoprecipitated from transiently transfected cells treated as indicated. […] Cell Culture and Transfection. HEK293 cells are grown in Dulbecco's modified eagle's medium supplemented with 10% fetal bovine serum. The cells are transiently transfected with a plasmid encoding HA-tagged Erk2 (HA-Erk2) and either pcDNA 3 S1P5 or pcDNA 3.1. Transfection is achieved by incubating the cells in 60 mm plates with plasmid/Lipofectamine complexes (2.1 μg total DNA/12 μl Lipofectamine) in serum-free medium for 5 hours. The DNA complexes are removed from the medium and the cells are starved overnight in serum-free medium and then used for experimentation. Erk2 Kinase Assay. […] The cells are lysed in buffer containing 50 mM Tris-HC1 pH 7.5, 150 mM NaCl, 1 mM EDTA, 1 mM EGTA, 1 mM DTT, 1% Triton X-100, 25 mM NaF, 5 mM sodium pyrophosphate, 20 mM ρ-nitrophenyl phosphate, 2 μg/mL leupeptin, and 100 μg/mL phenylmethylsulfonyl fluoride. HA-Erk2 is immunoprecipitated with the monoclonal antibody HA.11 (Convance, Richmond, Calif.). […] The reaction is terminated with SDS-containing gel-loading buffer and the reaction mixtures are analyzed on 11% SDS-polyacrylamide gels. The gels are processed by autoradiography. The bands on the gels are quantitated with a PhosphorImager. Erk2 protein in the immunoprecipitate is determined by immunoblotting with a polyclonal antibody to Erk2.

EDG-8 [2] = target: T1, EDG-8; settings: CHO cells expressing EDG-8; cited from earlier work; remark: listed apart in the source

T2 sequence (Q9H228 whole entry): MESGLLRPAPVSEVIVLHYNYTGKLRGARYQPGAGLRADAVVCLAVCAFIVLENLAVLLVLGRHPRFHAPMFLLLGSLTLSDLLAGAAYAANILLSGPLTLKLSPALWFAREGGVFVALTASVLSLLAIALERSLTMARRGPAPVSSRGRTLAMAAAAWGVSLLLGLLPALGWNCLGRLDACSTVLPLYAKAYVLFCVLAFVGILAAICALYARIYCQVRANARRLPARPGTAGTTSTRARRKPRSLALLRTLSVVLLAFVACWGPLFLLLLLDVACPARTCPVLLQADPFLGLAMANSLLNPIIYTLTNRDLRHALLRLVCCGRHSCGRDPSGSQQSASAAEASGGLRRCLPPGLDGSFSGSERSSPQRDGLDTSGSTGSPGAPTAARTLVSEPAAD
T1 sequence (Q9JKM5 whole entry): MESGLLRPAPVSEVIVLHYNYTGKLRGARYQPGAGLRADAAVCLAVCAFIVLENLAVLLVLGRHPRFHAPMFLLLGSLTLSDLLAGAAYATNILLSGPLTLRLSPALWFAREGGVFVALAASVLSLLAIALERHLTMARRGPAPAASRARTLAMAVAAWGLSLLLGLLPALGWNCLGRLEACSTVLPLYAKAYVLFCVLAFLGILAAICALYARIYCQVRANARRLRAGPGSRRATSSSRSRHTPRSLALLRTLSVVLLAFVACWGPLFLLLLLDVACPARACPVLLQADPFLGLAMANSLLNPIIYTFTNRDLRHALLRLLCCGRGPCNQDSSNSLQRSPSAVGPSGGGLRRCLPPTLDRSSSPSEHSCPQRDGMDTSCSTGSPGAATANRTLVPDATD

activation of Erk2 activity (S1P5)	activation of Erk2 activity (S1P5; listed as sphingosine-1-phosphate)	activation of Erk2 activity (S1P5; listed as lysophosphatidic acid)	Molecule	serum-induced activation of Erk1/2 (EDG-8 [1])	cell proliferation (EDG-8 [2])
activates Erk2	activation of Erk2 activity		CCCCCCCCCCCCC/C=C/[C@@H](O)[C@@H](N)COP(=O)(O)O [S1P, sphingosine-1-phosphate]	inhibited	inhibits the cell proliferation
not		does not	lysophosphatidic acid [LPA]		
